# Measured values reported in US20080161232A1, “C5a Receptor Antagonist” (JERINI AG, priority 2005, published 2008).
# Starred links: 1 amine or outer side, 2 acyl side, 3 side chain; linkers in the order of their positions; H or OH if unused. Positions of bridges follow the written chain, without caps; N, C: chain ends. Non-standard residues stand in square brackets, D forms with d. Residues, ends and D or L forms follow the SMILES beside them. *: point of attachment. Ala(piperidin-4-yl) = O=C([C@H](CC1CCN([*:3])CC1)N[*:1])[*:2]; Ala(1-amidino-4-piperidyl) = N=C(N)N1CCC(C[C@H](N)C(=O)O)CC1; Phe(4-guanidino) = N=C(N)Nc1ccc(C[C@H](N)C(=O)O)cc1; X9 = COc1ccc(Cn2cnc(C[C@H](N[*:1])C(=O)[*:2])c2)cc1; Phe(4-amidino) = N=C(N)c1ccc(C[C@H](N)C(=O)O)cc1; X6 = O=C([C@H](C[S+]([O-])Cc1cccnc1)N[*:1])[*:2]; Phe(4-F) = N[C@@H](Cc1ccc(F)cc1)C(=O)O; Bta = N[C@@H](Cc1csc2ccccc12)C(=O)O; Hyp = O=C(O)[C@@H]1C[C@@H](O)CN1; PhLac = O=C(O)[C@@H](O)Cc1ccccc1; d(hLeu) = CC(C)CC[C@@H](N)C(=O)O; hCit = NC(=O)NCCCC[C@H](N)C(=O)O; 4Pal = N[C@@H](Cc1ccncc1)C(=O)O; Cha = N[C@@H](CC1CCCCC1)C(=O)O; Cit = NC(=O)NCCC[C@H](N)C(=O)O; dCha = N[C@H](CC1CCCCC1)C(=O)O; NMeA = CN[C@@H](C)C(=O)O; Nle = CCCC[C@H](N)C(=O)O; Orn = NCCC[C@H](N)C(=O)O; Dab = NCC[C@H](N)C(=O)O; X17 = c1cc(CC*)ccn1; X16 = c1ccc(C*)nc1; X18 = c1cc(C*)ccn1; X22 = c1cncc(C*)c1
# Target: T1, human C5aR(CD88) (Homo sapiens, UniProt P21730)
# T1 construct: expressed in transfected cells; host or cells: rat basophilic leukemia cells (RBL)
# T1 sequence (P21730 1-350): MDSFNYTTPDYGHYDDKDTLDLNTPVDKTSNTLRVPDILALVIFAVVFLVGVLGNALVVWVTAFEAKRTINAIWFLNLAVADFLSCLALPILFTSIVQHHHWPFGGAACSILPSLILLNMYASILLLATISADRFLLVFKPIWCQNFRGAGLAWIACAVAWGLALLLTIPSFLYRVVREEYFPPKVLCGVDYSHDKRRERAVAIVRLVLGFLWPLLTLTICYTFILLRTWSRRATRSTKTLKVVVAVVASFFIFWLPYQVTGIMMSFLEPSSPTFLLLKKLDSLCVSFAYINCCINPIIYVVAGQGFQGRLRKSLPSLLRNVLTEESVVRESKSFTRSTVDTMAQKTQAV
# Test: Determination of the IC50 value in an enzyme release assay (functional assay, antagonistic activity)
# Assay type: cell-based
# Conditions: antagonistic activity; IC50 group in enzyme release assay, RBL cells expressing human C5aR(CD88); read-out: activity (group)
row,IC50 [nM],Compound
1,50 to 200,"CC(C)CC[C@H]1NC(=O)[C@H](CO)NC(=O)[C@@H](NC(=O)[C@@H](N)Cc2ccccc2)CCCNC(=O)[C@H](Cc2ccccc2)NC(=O)[C@H](Cc2ccc(F)cc2)NC1=O [Compound 389, H-Phe-[Orn-Ser-hle-Pff-Phe]] (H-F[Orn]S[d(hLeu)][Phe(4-F)]F; lactam 2-C)"
2,20 to 50,"CCCC[C@@H]1NC(=O)[C@H](Cc2c[nH]c3ccccc23)NC(=O)[C@@H](CCC(C)C)NC(=O)[C@H](CO)NC(=O)[C@@H](NC(=O)[C@@H](N)Cc2ccccc2)CCCNC1=O [Compound 390, H-Phe-[Orn-Ser-hle-Trp-Nle]] (H-F[Orn]S[d(hLeu)]W[Nle]; lactam 2-C)"
3,50 to 200,"CCCC[C@@H]1NC(=O)[C@H](Cc2c[nH]c3ccccc23)NC(=O)[C@@H](CCC(C)C)NC(=O)[C@@H]2C[C@@H](O)CN2C(=O)[C@@H](NC(=O)[C@@H](O)Cc2ccccc2)CCCNC1=O [Compound 392, Ohf-[Orn-Hyp-hle-Trp-Nle]] (H-[PhLac][Orn][Hyp][d(hLeu)]W[Nle]; lactam 2-C)"
4,200 to 2000,CC(=O)N[C@@H](Cc1ccccc1)C(=O)N[C@H]1CCCNC(=O)[C@H](CCCCNC(=N)N)NC(=O)[C@H](Cc2c[nH]c3ccccc23)NC(=O)[C@@H](CC2CCCCC2)NC(=O)[C@@H]2CCCN2C1=O [compound 8]
5,200 to 2000,CC(=O)N[C@@H](Cc1ccccc1)C(=O)N[C@H]1CCCNC(=O)[C@H](Cc2ccc(NC(=N)N)cc2)NC(=O)[C@H](Cc2c[nH]c3ccccc23)NC(=O)[C@@H](CC2CCCCC2)NC(=O)[C@@H]2CCCN2C1=O [compound 9] (Ac-F[Orn]P[dCha]W[Phe(4-guanidino)]; lactam 2-C)
6,200 to 2000,CC(=O)N[C@@H](Cc1ccccc1)C(=O)N[C@H]1CCCNC(=O)[C@H](CCC/N=C(/N)N[N+](=O)[O-])NC(=O)[C@H](Cc2c[nH]c3ccccc23)NC(=O)[C@@H](CC2CCCCC2)NC(=O)[C@@H]2CCCN2C1=O [compound 11]
7,200 to 2000,CC(=O)N[C@@H](Cc1ccccc1)C(=O)N[C@H]1CCCNC(=O)[C@H](CCCCNC(N)=O)NC(=O)[C@H](Cc2c[nH]c3ccccc23)NC(=O)[C@@H](CC2CCCCC2)NC(=O)[C@@H]2CCCN2C1=O [compound 13] (Ac-F[Orn]P[dCha]W[hCit]; lactam 2-C)
8,200 to 2000,CC(=O)N[C@@H](Cc1ccccc1)C(=O)N[C@H]1CCCNC(=O)[C@H](CSCc2ccncc2)NC(=O)[C@H](Cc2c[nH]c3ccccc23)NC(=O)[C@@H](CC2CCCCC2)NC(=O)[C@@H]2CCCN2C1=O [compound 15] (Ac-F[Orn]P[dCha]WC(X18); lactam 2-C)
9,200 to 2000,CC(=O)N[C@@H](Cc1ccccc1)C(=O)N[C@H]1CCCNC(=O)[C@H](C[S+]([O-])Cc2cccnc2)NC(=O)[C@H](Cc2c[nH]c3ccccc23)NC(=O)[C@@H](CC2CCCCC2)NC(=O)[C@@H]2CCCN2C1=O (some centres unmarked) [compound 16] (Ac-F[Orn]P[dCha]W[X6]; lactam 2-C)
10,200 to 2000,CC(=O)N[C@@H](Cc1ccccc1)C(=O)N[C@H]1CCCNC(=O)[C@H](CSCc2cccnc2)NC(=O)[C@H](Cc2c[nH]c3ccccc23)NC(=O)[C@@H](CC2CCCCC2)NC(=O)[C@@H]2CCCN2C1=O [compound 17] (Ac-F[Orn]P[dCha]WC(X22); lactam 2-C)
11,200 to 2000,CC(=O)N[C@@H](Cc1ccccc1)C(=O)N[C@H]1CCCNC(=O)[C@H](CSCc2ccccn2)NC(=O)[C@H](Cc2c[nH]c3ccccc23)NC(=O)[C@@H](CC2CCCCC2)NC(=O)[C@@H]2CCCN2C1=O [compound 18] (Ac-F[Orn]P[dCha]WC(X16); lactam 2-C)
12,200 to 2000,CC(=O)N[C@@H](Cc1ccccc1)C(=O)N[C@H]1CCCNC(=O)[C@H](CSCCc2ccncc2)NC(=O)[C@H](Cc2c[nH]c3ccccc23)NC(=O)[C@@H](CC2CCCCC2)NC(=O)[C@@H]2CCCN2C1=O [compound 19] (Ac-F[Orn]P[dCha]WC(X17); lactam 2-C)
13,200 to 2000,CC(=O)N[C@@H](Cc1ccccc1)C(=O)N[C@H]1CCCNC(=O)[C@H](Cc2ccc(C(=N)N)cc2)NC(=O)[C@H](Cc2c[nH]c3ccccc23)NC(=O)[C@@H](CC2CCCCC2)NC(=O)[C@@H]2CCCN2C1=O [compound 21] (Ac-F[Orn]P[dCha]W[Phe(4-amidino)]; lactam 2-C)
14,50 to 200,CC(=O)N[C@@H](Cc1ccccc1)C(=O)N[C@H]1CCCNC(=O)[C@H](Cc2ccncc2)NC(=O)[C@H](Cc2c[nH]c3ccccc23)NC(=O)[C@@H](CC2CCCCC2)NC(=O)[C@@H]2CCCN2C1=O [compound 23] (Ac-F[Orn]P[dCha]W[4Pal]; lactam 2-C)
15,50 to 200,CC(=O)N[C@@H](Cc1ccccc1)C(=O)N[C@H]1CCCNC(=O)[C@H](CCN)NC(=O)[C@H](Cc2c[nH]c3ccccc23)NC(=O)[C@@H](CC2CCCCC2)NC(=O)[C@@H]2CCCN2C1=O [compound 25] (Ac-F[Orn]P[dCha]W[Dab]; lactam 2-C)
16,200 to 2000,COc1ccc(Cn2cnc(C[C@@H]3NC(=O)[C@H](Cc4c[nH]c5ccccc45)NC(=O)[C@@H](CC4CCCCC4)NC(=O)[C@@H]4CCCN4C(=O)[C@@H](NC(=O)[C@H](Cc4ccccc4)NC(C)=O)CCCNC3=O)c2)cc1 [compound 26] (Ac-F[Orn]P[dCha]W[X9]; lactam 2-C)
17,> 2000,CC(=O)N[C@@H](Cc1ccccc1)C(=O)N[C@H]1CCCNC(=O)[C@H](CC2CCNCC2)NC(=O)[C@H](Cc2c[nH]c3ccccc23)NC(=O)[C@@H](CC2CCCCC2)NC(=O)[C@@H]2CCCN2C1=O [compound 27] (Ac-F[Orn]P[dCha]W[Ala(piperidin-4-yl)]; lactam 2-C)
18,> 2000,CC(=O)N[C@@H](Cc1ccccc1)C(=O)N[C@H]1CCCNC(=O)[C@H](CC2CCN(C(=N)N)CC2)NC(=O)[C@H](Cc2c[nH]c3ccccc23)NC(=O)[C@@H](CC2CCCCC2)NC(=O)[C@@H]2CCCN2C1=O [compound 30] (Ac-F[Orn]P[dCha]W[Ala(1-amidino-4-piperidyl)]; lactam 2-C)
19,20 to 50,CC(=O)N[C@@H](Cc1ccccc1)C(=O)N[C@H]1CCCNC(=O)[C@H](CCCNC(=N)N)NC(=O)[C@H](Cc2c[nH]c3ccccc23)NC(=O)[C@@H](CC2CCCCC2)NC(=O)[C@H](C)N(C)C1=O [compound 46] (Ac-F[Orn][NMeA][dCha]WR; lactam 2-C)
20,> 2000,CC(=O)N[C@@H](Cc1ccccc1)C(=O)N[C@H]1CCCNC(=O)[C@H](CCCN=C(N)N)NC(=O)[C@H](C)NC(=O)[C@@H](CC2CCCCC2)NC(=O)[C@@H]2CCCN2C1=O [compound 48] (Ac-F[Orn]P[dCha]AR; lactam 2-C)
21,200 to 2000,CC(=O)N[C@@H](Cc1ccccc1)C(=O)N[C@@H](CCCCN)C(=O)N[C@@H](C)C(=O)N[C@@H](CC1CCCCC1)C(=O)N[C@@H](C)C(=O)N[C@@H](CC(C)C)C(=O)N[C@H](C)C(=O)N[C@@H](Cc1ccc(O)cc1)C(=O)O [compound 60] (Ac-FKA[Cha]AL[dA]Y-OH)

row,Compound,IC50 [nM]
1,"CC(C)CC[C@@H](NC(=O)[C@@H]1CCCN1C(=O)[C@H](CCCNC(N)=O)NC(=O)[C@@H](N)Cc1ccccc1)C(=O)N[C@@H](Cc1csc2ccccc12)C(=O)N[C@@H](Cc1ccccc1)C(N)=O [Compound 391, H-Phe-Cit-Pro-hle-Bta-Phe-NH2] (H-F[Cit]P[d(hLeu)][Bta]F-NH2)",50 to 200

# Same assay, conditions: functional assay of example 11; noteworthy = IC50 less than 200 nM
row,Compound,inhibitory activity (in words)
1,Ac-Phe-[Orn-Hyp(CONHCH2COH(OH)CH2OH)-cha-Trp-Phe],noteworthy inhibitory activity
